Laboratory results from US12649732B2, “Polymorphs of (R)-N-(5-(5-isopropyl-1,2,4-oxadiazol-3-yl)-2,3-dihydro-1H-inden-1-yl)-2-methyl-2H-tetrazole-5-carboxamide” (Cytokinetics, Inc., priority 2019, dated 2026).

Columns and labels:
[1] = test system: adult rat ventricular myocytes; test: Myocyte contractility assay (fractional shortening, edge detection); type: cell-based, Sprague-Dawley rats; conditions: 5 μM, 5 min perfusion, 5 cells tested
Method: Adult male Sprague-Dawley rats were anesthetized and the hearts were quickly excised, rinsed and the ascending aorta was cannulated. Continuous retrograde perfusion was initiated on the hearts at a perfusion pressure of 60 cm H2O. Hearts were first perfused with a nominally Ca^2+-free modified Krebs solution of the following composition: 113 mM NaCl, 4.7 mM KCl, 0.6 mM KH2PO4, 0.6 mM Na2HPO4, 1.2 mM MgSO4, 12 mM NaHCO3, 10 mM KHCO3, 30 mM taurine, 5.5 mM glucose and 10 mM Hepes (all Sigma). This medium is not recirculated and is continually aerated with a 95% O2/5% CO2 mixture. […]
Aliquots of myocytes in Tyrode's buffer were placed in perfusion chambers (series 20 RC-27NE; Warner Instruments) complete with heating platforms. […] Contractility of the myocytes and contraction and relaxation velocities were then recorded using edge detection.
Five or more individual myocytes were tested per compound from two or more different myocyte preparations. […] These average transients were analyzed using the IonWizard software (IonOptix) to determine changes in diastolic length and fractional shortening. Fractional shortening was calculated as: ((resting length−length at peak contraction) divided by the resting length). The percent change in fractional shortening from baseline was calculated as: ((post-dose fractional shortening/basal fractional shortening)*100). […]

[2] = target: T1, bovine cardiac myofibrils (Bos taurus, UniProt Q9BE39); test: Skinned bovine cardiac myofibril ATPase assay (PK/LDH-coupled); type: biochemical; conditions: steady-state ATPase, Ca2+ giving 75% activation of myofibril ATPase
T1 construct: full-length cardiac myosin in the context of the native sarcomere; from tissue; host or cells: bovine cardiac left ventricular tissue (Triton X-100 skinned myofibrils)
Method: To evaluate the effect of (R)—N-(5-(5-isopropyl-1,2,4-oxadiazol-3-yl)-2,3-dihydro-1H-inden-1-yl)-2-methyl-2H-tetrazole-5-carboxamide on the ATPase activity of full-length cardiac myosin in the context of the native sarcomere, skinned myofibril assays were performed. Bovine cardiac myofibrils were obtained by homogenizing bovine cardiac left ventricular tissue in the presence of a detergent such as triton X-100. Such treatment removes membranes and a majority of the soluble cytoplasmic proteins but leaves intact the cardiac sarcomeric acto-myosin apparatus. Myofibril preparations retain the ability to hydrolyze ATP in a Ca^2+ regulated manner. […] Small molecule agents were assessed for their ability to inhibit the steady-state ATPase activity of bovine cardiac myofibrils using pyruvate kinase and lactate dehydrogenase (PK/LDH)-coupled enzyme system. This assay regenerates myosin-produced ADP into ATP by oxidizing NADH, producing an absorbance change at 340 nm. Prior to testing small molecule agents, the bovine cardiac myofibrils were assessed for their calcium responsiveness and the calcium concentration that achieves either a 50% (pCa50) or 75% (pCa75) activation of the myofibril system was chosen as the final condition for assessing the inhibitory activity of the small molecule agents.

[3] = test system: cardiac fractional shortening; test: Echocardiography of rat cardiac contractility, continuous IV infusion; type: in vivo, Sprague Dawley rats; conditions: Mean±S.D., read-out: estimated IC50 (plasma concentration at which fractional shortening is 50% of pre-dose baseline)
Method: (§1) Assessment of in vivo cardiac function by echocardiography was performed in male Sprague Dawley rats under isoflurane (1-3%) anesthesia. 2-D M-mode images of the left ventricle were acquired in the parasternal long-axis view before, during, and after administration of compounds by continuous IV infusion or oral gavage. In vivo fractional shortening was determined by M-mode image analysis with the following calculation: ((End diastolic diameter−end systolic diameter)/end diastolic diameter×100). For continuous IV infusion experiments, three pre-dose baseline M-mode images were taken at 1 minute intervals prior to infusion of compound. Compounds were formulated in 50% Propylene Glycol (PG): 16% Captisol: 10% dimethylacetamide (DMA) and delivered via a jugular vein catheter at the rate of 1 mL/kg/h. During infusion, M-mode images were taken at 5 minute intervals. The infusion stopped when fractional shortening reached up to a 60% reduction from baseline. Blood samples were taken to determine the plasma concentration of the compounds. Data was reported as an estimated IC50 value, which is the concentration at which fractional shortening is 50% of the pre-dose baseline contractility.

[4] = test system: cardiac fractional shortening; test: Echocardiography of rat cardiac contractility, oral dosing; type: in vivo, Sprague Dawley rats
Method: as §1, with “contractility. […] For oral dosing studies, three pre-dose baseline M-Mode images were taken at 1 minute intervals prior to compound administration. (R)—N-(5-(5-isopropyl-1,2,4-oxadiazol-3-yl)-2,3-dihydro-1H-inden-1-yl)-2-methyl-2H-tetrazole-5-carboxamide was formulated in a 0.5% hydroxypropyl methylcellulose 2910 (HPMC 2910): 0.1% Tween 80 suspension and delivered as a single dose (5 mL/kg) by oral gavage. Rats were lightly anesthetized for M-Mode echocardiography measurements at select time points over a 24 hour period. Different dose levels were evaluated. The compound effect on cardiac fractional shortening at the highest dose evaluated is presented below as a percent reduction of baseline fractional shortening (=100%). Concurrent with echocardiography measurements, blood samples were taken to determine the corresponding compound plasma concentration.” for “contractility.”

T1 sequence (Q9BE39 whole entry): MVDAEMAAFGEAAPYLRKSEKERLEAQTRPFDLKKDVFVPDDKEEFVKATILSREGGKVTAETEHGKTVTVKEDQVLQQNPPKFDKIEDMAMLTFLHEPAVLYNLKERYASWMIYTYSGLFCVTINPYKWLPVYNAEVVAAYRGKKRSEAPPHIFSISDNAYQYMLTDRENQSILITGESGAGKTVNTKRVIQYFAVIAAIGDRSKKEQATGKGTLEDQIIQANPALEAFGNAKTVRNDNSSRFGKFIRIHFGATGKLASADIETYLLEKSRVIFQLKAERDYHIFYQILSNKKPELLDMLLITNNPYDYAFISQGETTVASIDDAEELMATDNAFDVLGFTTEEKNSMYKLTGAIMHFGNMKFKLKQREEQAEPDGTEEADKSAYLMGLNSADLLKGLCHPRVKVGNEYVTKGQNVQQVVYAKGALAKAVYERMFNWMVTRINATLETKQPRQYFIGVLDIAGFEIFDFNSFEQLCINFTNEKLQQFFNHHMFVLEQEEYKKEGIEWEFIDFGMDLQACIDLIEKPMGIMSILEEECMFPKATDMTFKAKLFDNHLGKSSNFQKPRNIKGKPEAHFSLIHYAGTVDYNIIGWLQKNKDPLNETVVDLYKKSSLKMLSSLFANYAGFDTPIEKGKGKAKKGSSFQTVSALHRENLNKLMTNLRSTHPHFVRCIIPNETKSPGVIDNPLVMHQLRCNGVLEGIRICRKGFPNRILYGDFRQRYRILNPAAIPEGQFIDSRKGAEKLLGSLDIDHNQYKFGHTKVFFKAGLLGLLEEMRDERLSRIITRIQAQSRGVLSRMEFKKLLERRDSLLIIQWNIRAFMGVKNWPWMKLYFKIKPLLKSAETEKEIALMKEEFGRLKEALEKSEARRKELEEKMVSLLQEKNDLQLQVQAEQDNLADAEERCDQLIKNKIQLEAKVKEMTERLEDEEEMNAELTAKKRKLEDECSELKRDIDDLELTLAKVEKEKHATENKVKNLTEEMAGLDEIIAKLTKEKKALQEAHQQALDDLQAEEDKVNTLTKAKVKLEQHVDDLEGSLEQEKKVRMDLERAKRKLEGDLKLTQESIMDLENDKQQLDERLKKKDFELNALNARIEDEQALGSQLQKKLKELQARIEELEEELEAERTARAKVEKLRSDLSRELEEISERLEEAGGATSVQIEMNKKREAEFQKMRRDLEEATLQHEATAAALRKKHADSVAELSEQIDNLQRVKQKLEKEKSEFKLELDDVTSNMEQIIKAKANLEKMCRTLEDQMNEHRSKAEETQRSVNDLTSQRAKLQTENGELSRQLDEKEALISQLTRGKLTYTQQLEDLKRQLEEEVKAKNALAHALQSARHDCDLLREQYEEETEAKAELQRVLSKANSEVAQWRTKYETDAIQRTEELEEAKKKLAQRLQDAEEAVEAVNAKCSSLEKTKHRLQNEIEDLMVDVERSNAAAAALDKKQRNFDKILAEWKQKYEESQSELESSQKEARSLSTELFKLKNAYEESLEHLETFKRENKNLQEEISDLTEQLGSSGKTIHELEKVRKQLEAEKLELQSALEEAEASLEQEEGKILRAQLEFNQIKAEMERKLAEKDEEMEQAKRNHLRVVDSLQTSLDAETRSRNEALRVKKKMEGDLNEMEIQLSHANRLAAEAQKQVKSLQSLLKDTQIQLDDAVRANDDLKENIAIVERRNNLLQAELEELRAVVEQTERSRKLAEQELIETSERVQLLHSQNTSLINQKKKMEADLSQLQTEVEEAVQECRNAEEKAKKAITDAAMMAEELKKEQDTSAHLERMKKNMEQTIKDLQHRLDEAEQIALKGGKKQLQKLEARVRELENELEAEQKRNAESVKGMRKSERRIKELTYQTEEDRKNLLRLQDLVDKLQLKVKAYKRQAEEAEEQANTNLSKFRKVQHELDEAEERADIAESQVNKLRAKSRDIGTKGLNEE
T1 sequence (P85100 whole entry partner): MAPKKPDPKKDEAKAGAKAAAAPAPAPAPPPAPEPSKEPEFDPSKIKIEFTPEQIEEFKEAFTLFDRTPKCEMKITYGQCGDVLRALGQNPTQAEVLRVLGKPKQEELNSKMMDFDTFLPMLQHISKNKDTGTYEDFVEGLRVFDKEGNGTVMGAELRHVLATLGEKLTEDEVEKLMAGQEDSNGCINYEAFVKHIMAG
T1 sequence (Q3SZE5 whole entry partner): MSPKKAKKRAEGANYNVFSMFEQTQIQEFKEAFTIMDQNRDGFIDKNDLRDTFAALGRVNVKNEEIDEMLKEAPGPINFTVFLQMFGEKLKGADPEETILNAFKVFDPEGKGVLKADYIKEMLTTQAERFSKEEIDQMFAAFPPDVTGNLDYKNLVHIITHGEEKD

IC15 (CDMF75) [2]: 0.5 µM
IC50 [3]: 2.7 ± 0.12 µM
IC50 ([4]; Rattus norvegicus, oral dosing, read-out: estimated IC50 (plasma concentration, fractional shortening)): 2.9 µM
Compound: CC(C)c1nc(-c2ccc3c(c2)CC[C@H]3NC(=O)c2nnn(C)n2)no1 [(R)—N-(5-(5-isopropyl-1,2,4-oxadiazol-3-yl)-2,3-dihydro-1H-inden-1-yl)-2-methyl-2H-tetrazole-5-carboxamide]
% FS (% reduction from baseline) ± SEM [1]: 67.8 ± −5.4%
FS (% reduction from baseline) at 1-2 h post dose (Mean ± S.D.) ([4]; 6 mg/kg single oral gavage, 1-2 h post dose): 40 ± 9%
FS (% reduction from baseline) at 4 h post dose (Mean ± S.D.) ([4]; 6 mg/kg single oral gavage, 4 h post dose): 18 ± 11%
estimated IC10 (plasma concentration, fractional shortening) ([4]; oral dosing): 0.7 µM
